Assay results taken from patent US12456194B2, “Methods for identifying and using cell behavior in drug screening and diagnosis” (Indiana University Research and Technology Corporation, priority 2020, dated 2025).

Key:
[1] = test system: B16F10 melanoma cell line; experiment: 3D tumor culture T cell infiltration drug screen scored by neural network, B16F10; details: B16F10 melanoma cell line-based screen; library of 141 small molecule epigenetic modulators; averaging the scores of a total of 10 images; FIG. 6
Method: (§1) Once the predicted Rd is determined, the predicted Rd for each patient can be classified as depicted in Step 215 of FIG. 2. For example, Rd can be defined as high, medium, and low-survival groups by binning the Rd's by or into risk classifications or categories, such as low survival, medium survival and high survival. Low survival may mean the Rd>75% of TCGA SKCM patient dataset; medium survival may mean Rd=25%-75% of TCGA SKCM patient dataset; and high survival may mean Rd<25% of TCGA SKCM patient dataset. Each risk classification or category may be associated with a predetermined values, such as 0 for low survival (high risk), 1 for medium survival (medium risk), and 2 for high survival (low risk).
(§2) The trained neural network as described in FIG. 1 and FIG. 4 is transferred to 3D tumor culture dataset 305, a drug screening method and/or a companion diagnostic method 300 may be performing using the algorithms discussed above with respect to FIGS. 1, 2 and 4 to objectively quantify and predict/score the effectiveness of a drug or a treatment based on a particular type of TIL behavior within 3D tumor cultures or patent tumor tissue samples. For example, a library of 141 small molecule epigenetic modulators in 2 cancer cell lines (e.g., B16F10 melanoma and UN-KC6141 pancreatic cancer) were screened. […]

[2] = test system: UN-KC6141 pancreatic cancer cell line; experiment: 3D tumor culture T cell infiltration drug screen scored by neural network, UN-KC6141; details: UN-KC6141 pancreatic cancer cell line-based screen; library of 141 small molecule epigenetic modulators; averaging the scores of a total of 10 images; FIG. 6
Method: as §1, §2

Structure (SMILES): c1ccc([C@@H]2C[C@H]2NC2CCNCC2)cc1 [GSK-LSD1]
- final score (T cell infiltration enhancement activity) [1]: highest score
- final score (T cell infiltration enhancement activity) [2]: highest score
